In brackets after ≈: the same amount, converted by molar mass. Several values for one entry are separate records, joined by “and”; a condition that tells them apart may be missing. Equal entries are not always repeated. Where two headings read alike, the source gives them in different places.
Legend:
[1] = system: serum cytokines TNF-α, IL-2, VEGF; assay: Serum cytokines (TNF-α, IL-2, VEGF) by ELISA in H22 tumour-bearing mice; type: in vivo, ICR mice; conditions: for Expression level of IL-2: compared to the tumour model group; for Expression level of IL-2 / Serum TNF-α level: Fig. 2(c); for Serum VEGF: Fig. 2(d)
Protocol: (§1) To prepare the ascitic tumour-bearing model, 0.2 mL of the cell suspension (1 × 10^5 cells/mouse) was injected into the shoulder of the right limb subcutaneously in each mouse. Twenty-four hours after the tumour inoculation with H22 cells, the ICR mice were divided into 7 groups as follows: the normal group, the model group, the cyclophosphamide (CTX) group, the ARG group, the high dose ARG-V group, the middle dose ARG-V group, and the low dose ARG-V group. The positive control group received CTX at a dosage of 25 mg/kg by intraperitoneal injection. The model group and the normal group were treated with the same amount of normal saline by P.O. once a day. The mice were given an ARG suspension solution mixed with sodium carboxymethyl cellulose at a daily dose of 40 mg/kg, and ARG-V dissolved in saline at different dosages was administered orally. The mice in each group were treated continuously for 14 days. Before and after each drug administration, the size of the tumours were measured, and the weights of the mice were recorded. Twenty-four hours after the last administration, the mice were killed by cervical dislocation, and blood samples were collected from the eyes of the mice. The tumour, spleen, and thymus of the mice were taken out and weighed on an electronic balance.
The serum levels of the cytokines IL-2, IL-6, VEGF and TNF-α were analysed using a commercially available ELISA kit according to the manufacturer’s instruction.

[2] = system: H22 tumour-bearing mice; assay: Serum ALT, AST, BUN and CRE in H22 tumour-bearing mice; conditions: for Serum ALT / Serum AST: Fig. 2(a); for BUN / CRE: Fig. 2(b)
Protocol: as §1
AST and ALT are clinical indexes of liver function, used in medicine to judge whether the liver is damaged. BUN and CRE are used to judge whether the kidney is damaged. They were analysed by a commercially available reagent kit according to the instructions.

[3] = system: H22 hepatocellular carcinoma; assay: In vivo anti-tumour experiment in H22 tumour-bearing mice (tumour growth, body weight, immune organ indexes); conditions: 14 days
Description: SPF (specific pathogen free) grade, male ICR mice with body weights ranging from 19 to 21 g were obtained from the Laboratory Animal Quality Testing Center of Jilin Province. The ICR mice were divided into 7 groups as follows: the normal group, the model group, the cyclophosphamide (CTX) group, the ARG group, the high dose ARG-V group, the middle dose ARG-V group and the low dose ARG-V group. H22 hepatocarcinoma cells were purchased from the Institute of Biochemistry and Cell Biology, CAS.
as §1

[4] = Nitrite scavenging activity, diazo coupling spectrophotometric method (in vitro anti-tumour experiment)
Description: Numerous methods for nitrite clearance have been reported, such as spectrophotometric, chromatographic-mass spectrometric, electrochemical, and fluorescence methods. Considering various factors, we decided to use diazo coupling spectrophotometry to perform this experiment. […] On the other hand, it may be that ARG-V also has the ability to bind nitrite such that the nitrite content decreased, achieving the purpose of clearing nitrite.
Our team has studied the […] scavenging activity of ARG and ARG-V using diazo coupling spectrophotometric method.

[5] = parameters: method as in PMID 27685612; conditions: patients with advanced pancreatic cancer refractory to gemcitabine; second peaks indicate enterohepatic circulation; cited from earlier work
[6] = system: Beagle dogs; parameters: method as in earlier work; conditions: cited from earlier work
[7] = Solubility according to the Chinese Pharmacopoeia, 2015 edition; type: physicochemical; conditions: for Solubility in Acetonitrile: solvent acetonitrile; for Solubility in Acetonitrile:water 45:55: solvent acetonitrile:water 45:55; for Solubility in Cloroform: solvent chloroform; for Solubility in Ethyl acetate: solvent ethyl acetate; for Solubility in Water: solvent water
Protocol: Solubility is a physical property of the drug. The reaction was performed according to the Chinese Pharmacopoeia, 2015 edition.

[8] = Stability of ARG QC samples in rat plasma; type: in vitro ADME; conditions: three concentrations; room temperature 12 hours, −20 °C for a month, three freeze-thaw cycles
Protocol: The ARG stock solution was diluted with plasma to make quality control (QC) samples, and the QC samples were prepared at three concentrations of low, medium and high (0.02, 0.1, and 2 μg/mL). The QC samples were kept at room temperature for 12 h, and freeze-thaw cycles were repeated 3 times. The QC samples were kept at −20 °C for 30 days.

[9] = Pharmacokinetics after oral (intragastric) administration to rats, plasma ARG by HPLC, 3P97 fit; type: in vivo, Wistar rats; conditions: for AUC / CL/F(s): intragastric, X ± SD, n = 6; for AUC value: oral
Protocol: Male Wistar rats (8 weeks, 230–250 g) were purchased from Liaoning Changsheng Biotechnology Co., Ltd. (Certificate No. SCXK-2015-0001) and acclimated to the laboratory environment for 1 week.
After the frozen plasma thawed, a 0.2 mL rat plasma sample was placed in an Eppendorf tube containing 5 µL of the IS working solution and 1 mL of acetonitrile with 0.1% formic acid and mixed evenly with a turbine mixer for 3 minutes. It was then separated by centrifugation (12000 rpm, 10 min, 4 °C). The supernatant was withdrawn and evaporated to dryness under N2. The dry residue was reconstituted by mixing it with 50 μL of acetonitrile for 1 minute and separated by centrifugation (16000 rpm, 5 min, 4 °C), and a 20 μL aliquot was injected into the HPLC system for analysis.
The rats received ARG and ARG-V by oral administration. Blood samples were obtained via the oculi chorioideae vein before oral administration and at 1, 3, 5, 10, 15, 30, 45, 60, 90, 120, 150, 180, 240, and 360 min after administration. The whole blood samples were separated by centrifugation (8000 rpm, 10 min), and the plasma was obtained and stored at −20 °C until analysis.
Analytes were separated on a Thermo BDS HYPERSIL C18 column (4.6 × 250 mm, 5 μm) at a flow rate of 1.0 mL/min. The column was maintained at 30 °C. The mobile phase consisted of acetonitrile and 0.1% formic acid water (45:55 v/v). Detection was done at a wavelength of 280 nm.
The values are presented as the mean ± standard deviation (SD). The concentration-time curve was drawn, and data were processed using the 3P97 software.

[10] = 25 mg/kg intraperitoneal, mean ± SD, n = 8
[11] = concentration 0.125 mg/mL, in % (unit assumed)
[12] = concentration 0.25 mg/mL, in % (unit assumed)
[13] = concentration 0.5 mg/mL, in % (unit assumed)
[14] = concentration 1 mg/mL, in % (unit assumed)
[15] = concentration 2 mg/mL, in % (unit assumed)
[16] = concentration 4 mg/mL, in % (unit assumed)
[17] = first of three concentrations (low dosage)
[18] = second of three concentrations (middle dosage)
[19] = third of three concentrations (high dosage)
[20] = 40 mg/kg oral daily, mean ± SD, n = 8

Compound	Expression level of IL-2 [1]	Serum VEGF ([1]; compared with the model group)	Serum ALT ([2]; compared to the model group)	Serum AST ([2]; compared to the model group)	IC50 (nitrite scavenging) [4] [µg/mL]	Clearance rate on nitrite [4, 11]	Clearance rate on nitrite [4, 12]	Clearance rate on nitrite [4, 13]	Clearance rate on nitrite [4, 14]	Clearance rate on nitrite [4, 15]	Clearance rate on nitrite [4, 16]	Solubility in Acetonitrile [7]	Solubility in Acetonitrile:water 45:55 [7]	Solubility in Cloroform [7]	Solubility in Ethyl acetate [7]	Solubility in Water [7]	AUC value [9, 17] [ng·h/mL]	AUC value [9, 18] [ng·h/mL]	AUC value [9, 19] [ng·h/mL]	BUN ([2]; compared to the CTX group)	other results
O=P1(N(CCCl)CCCl)NCCCO1 (stereo not drawn) [CTX, Cyclophosphamide]	obviously decreased	decreased significantly	obviously increased	obviously increased																	Serum TNF-α level ([1]; compared with the model group): significantly decreased; Increase of body weight ([3]; 25 mg/kg intraperitoneal): 4.37 g; Inhibitory rate ([3]; 25 mg/kg intraperitoneal): 72.06%; Spleen index [3, 10]: 4.40 ± 0.40 mg/g; Thymus index [3, 10]: 1.24 ± 0.20 mg/g; Tumor weight [3, 10]: 0.50 ± 0.11 g
COc1cc(C[C@H]2C(=O)OC[C@@H]2Cc2ccc(OC)c(OC)c2)ccc1O [ARG, Arctigenin]			decreased	decreased	17490 (≈ 47 mM)	17.60 ± 0.02	23.41 ± 0.02	27.72 ± 0.03	31.09 ± 0.02	34.46 ± 0.02	39.14 ± 0.07	very soluble	very soluble	freely soluble	freely soluble	almost insoluble	228	316	424	no significant difference	Form of ARG in patients [5]: exists as arctigenin glucuronide (AGG); Toxicity in Beagle dogs ([6]; 60 mg/kg group, subcutaneous injection, except the stimulus response at the administration location): no overt toxicity; Toxicity in Beagle dogs ([6]; repeated subcutaneous injection of large doses): can induce injury to the liver and biliary duct; Stability in rat plasma QC samples [8]: good results; AUC ([9]; high dosage): 25419.859 ± 5497.001 (ng/mL)*min; CL/F(s) ([9]; high dosage): 0.009 ± 0.003 mg/kg/min/(ng/mL); AUC ([9]; low dosage): 13687.547 ± 3050.502 (ng/mL)*min; CL/F(s) ([9]; low dosage): 0.004 ± 0.001 mg/kg/min/(ng/mL); AUC ([9]; middle dosage): 18971.963 ± 5515.267 (ng/mL)*min; CL/F(s) ([9]; middle dosage): 0.006 ± 0.003 mg/kg/min/(ng/mL); CRE ([2]; compared to the CTX group): no significant difference; Inhibitory rate ([3]; 40 mg/kg oral daily): 26.26%; Tumor weight [3, 20]: 1.32 ± 0.34 g
COc1ccc(CC2COC(=O)C2Cc2ccc(OC(=O)C(N)C(C)C)c(OC)c2)cc1OC (stereo not drawn) [ARG-V]	significantly higher	decreased	decreased	decreased	2190 (≈ 4.64 mM)	20.22 ± 0.00	27.90 ± 0.05	35.21 ± 0.07	45.51 ± 0.01	64.04 ± 0.01	69.10 ± 0.04	slight soluble	very soluble	freely soluble	almost insoluble	freely soluble	253	391	574	significant difference	Increase of nitrite removal ability compared with ARG ([4]; concentration 4 mg/mL): more than 75%; Serum TNF-α level ([1]; three doses, compared with the CTX group): increased significantly; BUN ([2]; compared to the model group): decreased significantly; CRE ([2]; compared to the model group): decreased significantly; Inhibitory rate ([3]; 20 mg/kg oral daily): 42.46%; Tumor weight ([3]; 20 mg/kg oral daily, mean ± SD, n = 8): 1.03 ± 0.19^**,##,a g; Inhibitory rate ([3]; 40 mg/kg oral daily): 69.2% and 69.27%; Tumor weight [3, 20]: 0.55 ± 0.15^**,aa g; Inhibitory rate ([3]; 80 mg/kg oral daily): 63.13%; Tumor weight ([3]; 80 mg/kg oral daily, mean ± SD, n = 8): 0.66 ± 0.17^**,#,aa g
O=C1O[C@H]([C@@H](O)CO)C(O)=C1O [VC]					690 (≈ 3.92 mM)																Clearance rate on nitrite ([4]; concentration 0.125 mg/mL): 7.30 ± 0.06; Clearance rate on nitrite ([4]; concentration 0.25 mg/mL): 17.23 ± 0.00; Clearance rate on nitrite ([4]; concentration 0.5 mg/mL): 25.84 ± 0.03; Clearance rate on nitrite ([4]; concentration 1 mg/mL): 54.49 ± 0.02; Clearance rate on nitrite ([4]; concentration 2 mg/mL): 96.32 ± 0.00; Clearance rate on nitrite ([4]; concentration 4 mg/mL): 97.75 ± 0.00

— paper PMC5818482, “Experimental study of the anti-tumour activity and pharmacokinetics of arctigenin and its valine ester derivative” (Scientific Reports, 2018)
